Legend:
[1] = tested on: clot formation and fibrinolysis in human citrate plasma; assay: Clot formation and fibrinolysis test (CL-test); type: biochemical
Experimental: The effects of the […] on overall hemostasis potential by means of clot formation and fibrinolysis test (CL-test) were further tested based on the continuous measurement of the changes in optical transmittance over time, as described by Kostka et al. and Sikora et al.. These experiments were conducted using 470 µL of three-fold diluted human citrate plasma, 10 µL of the tested compounds, and 10 µL t-PA (final concentration in a sample 220 ng/mL). The clot formation was triggered by thrombin (10 µL, final concentration 0.5 IU/mL). The clot formation and lysis curves were determined at a wavelength of 405 nm with a spectrophotometer (Cecil CE 2021; London, UK) with circulating thermostated water (37 °C) and a Model 300 Electronic Stirrer (Rank Brothers Ltd., Cambridge, UK). The experiments were conducted in multiplicate (n = 5–7), and the results are presented as mean ± SD.
The received graphs were analyzed using dedicated software to determine the kinetic parameters of clot formation, stabilization, and fibrinolysis. The following parameters of clot formation were determined: Tt—thrombin time (s), Fmax—maximum clotting (%T), Tf—plasma clotting time (s), Fvo—initial plasma clotting velocity (%T/min), Sr—area under the clot formation curve (%Txmin). The parameters of the clot stabilization phase comprised Tc—clot stabilization time (s), Sc—area under the curve of stable clot formation (%Txmin). The parameters of fibrinolysis comprised Lmax—maximum lysis (%T), Tl—fibrinolysis time (s), Lvo—initial clot fibrinolysis velocity (%T/min), Sf—area under the fibrinolysis curve (%Txmin). Additionally, the overall potential of clot formation and fibrinolysis (CLAUC, (%Txmin)) and total time of the process of clot formation and fibrinolysis (T, (s)) were also estimated.

HUVEC cells = assay: WST-1 cell viability assay, HUVEC
Experimental: (§1) HUVEC and AoSMC viability were tested using the WST-1 cell viability assay (Takara Bio Europe, Saint-Germain-en-Laye, France). […] Briefly, HUVEC and AoSMC were seeded at densities of 7500 and 5000 cells per well on 96-well plates. The cells were cultivated for up to 24 h to achieve 70% confluency, and subsequently treated with tested compounds diluted in medium (1 + 9; v = 100 μL) or pure medium (control). The plates were incubated at 37 °C (5% CO2) for the next 24 h. Then, the cells were rinsed with 100 μL culture medium, and WST-1 reagent diluted in medium (100 μL) was added; the plates were then incubated again (37 °C, 5% CO2) for another 90 min. The absorbance was measured at 450 nm (iMARK, Bio-Rad, Hercules, CA, USA). The experiments were performed in multiplicate (n = 8) and the results were presented as mean ± SD. The cell viability was expressed as a percentage of the control samples, which constituted 100% viability. […] The variability coefficient of the method was estimated (CV(HUVEC) = 8.94%, n = 8; CV(AoSMC) = 5.84%, n = 10).

[2] = WST-1 cell viability assay, AoSMC; details: human, AoSMC cells
Experimental: as §1

## CN(C)C(=N)N=C(N)NS(=O)(=O)C1CCCCC1 [Compound 3]
[1]; 0.06 mM
  Fmax—maximum clotting: 65.40 ± 9.39 %T
  Fvo—initial plasma clotting velocity: 208.17 ± 44.80 %T/min
  Lmax—maximum lysis: 71.38 ± 8.36 %T
  Lvo—initial clot fibrinolysis velocity: 20.38 ± 5.24 %T/min
  Sc—area under the curve of a stable clot formation: 314.15 ± 49.14 %T x min
  Sf—area under the clot formation curve: 48.52 ± 10.81 %T x min
  Sl (area under the fibrinolysis curve): 156.16 ± 30.07 %T x min
  S—overall potential of clot formation and fibrinolysis (CLAUC): 521.91 ± 66.81 %T x min
  Tc—clot stabilization time: 279.50 ± 46.51 s
  Tf—plasma clotting time: 57.45 ± 8.71 s
  Tl—fibrinolysis time: 235.33 ± 48.33 s
  Tt—thrombin time: 16.68 ± 3.26 s
  T—total time of the process of clot formation and fibrinolysis: 588.97 ± 87.54 s
[1]; 0.3 mM
  Fmax—maximum clotting: 68.78 ± 4.04 %T
  Fvo—initial plasma clotting velocity: 214.17 ± 32.05 %T/min
  Lmax—maximum lysis: 70.15 ± 3.87 %T
  Lvo—initial clot fibrinolysis velocity: 22.88 ± 8.98 %T/min
  Sc—area under the curve of a stable clot formation: 335.21 ± 50.51 %T x min
  Sf—area under the clot formation curve: 44.41 ± 6.00 %T x min
  Sl (area under the fibrinolysis curve): 142.20 ± 37.46 %T x min
  S—overall potential of clot formation and fibrinolysis (CLAUC): 521.82 ± 88.83 %T x min
  Tc—clot stabilization time: 299.50 ± 38.60 s
  Tf—plasma clotting time: 55.13 ± 7.55 s
  Tl—fibrinolysis time: 229.17 ± 48.85 s
  Tt—thrombin time: 16.23 ± 4.22 s
  T—total time of the process of clot formation and fibrinolysis: 600.03 ± 91.80 s
[1]; 0.6 mM
  Fmax—maximum clotting: 66.60 ± 4.00 %T
  Fvo—initial plasma clotting velocity: 211.50 ± 22.76 %T/min
  Lmax—maximum lysis: 67.55 ± 4.50 %T
  Lvo—initial clot fibrinolysis velocity: 23.53 ± 6.67 %T/min
  Sc—area under the curve of a stable clot formation: 323.11 ± 42.53 %T x min
  Sf—area under the clot formation curve: 42.40 ± 3.94 %T x min
  Sl (area under the fibrinolysis curve): 137.48 ± 23.47 %T x min
  S—overall potential of clot formation and fibrinolysis (CLAUC): 502.99 ± 64.69 %T x min
  Tc—clot stabilization time: 299.50 ± 40.90 s
  Tf—plasma clotting time: 54.73 ± 5.88 s
  Tl—fibrinolysis time: 234.83 ± 42.86 s
  Tt—thrombin time: 17.17 ± 3.17 s
  T—total time of the process of clot formation and fibrinolysis: 606.23 ± 87.70 s
[1]; 1.5 mM
  Fmax—maximum clotting: 63.60 ± 5.36 %T
  Fvo—initial plasma clotting velocity: 199.50 ± 18.07 %T/min
  Lmax—maximum lysis: 63.92 ± 5.38 %T
  Lvo—initial clot fibrinolysis velocity: 23.50 ± 13.77 %T/min
  Sc—area under the curve of a stable clot formation: 368.60 ± 84.14 %T x min
  Sf—area under the clot formation curve: 47.68 ± 7.07 %T x min
  Sl (area under the fibrinolysis curve): 143.17 ± 38.79 %T x min
  S—overall potential of clot formation and fibrinolysis (CLAUC): 559.45 ± 127.25 %T x min
  Tc—clot stabilization time: 355.50 ± 66.77 s
  Tf—plasma clotting time: 62.35 ± 6.00 s
  Tl—fibrinolysis time: 253.17 ± 62.51 s
  Tt—thrombin time: 18.15 ± 4.30 s
  T—total time of the process of clot formation and fibrinolysis: 689.17 ± 134.48 s
HUVEC cells; 0.3 mM, vs control
  Decrease of HUVECs viability (growth inhibition): ~24.15%
HUVEC cells; Homo sapiens, HUVEC, 24 h, read-out: Viability-IC50, HUVEC cells
  IC50: 3.51 ± 0.24 mM
[2]
  viability at 24 h, 3 mM: > 76%

From PMC9029893 (International Journal of Molecular Sciences, 2022)
